# Measured values from paper PMC10096180, “Half-Sandwich Type Platinum-Group Metal Complexes of C-Glucosaminyl Azines: Synthesis and Antineoplastic and Antimicrobial Activities” (Molecules, 2023).
# Read-outs that look alike come from different tables or passages of the source.
# Tests used:
# [1] = system: A2780 cells; test: SRB binding assay, cytostasis, 48 h treatment; assay type: cell-based; conditions: for A2780 SRB Max Inhibition: up to 100 μM, ND = not detectable
# Procedure: (§1) The complexes described above are intended to replace registered platinum complexes. Platinum complexes constitute the core of the chemotherapy regimen used in ovarian cancer; therefore, we used a cellular model of ovarian cancer, A2780, and primary human dermal fibroblasts as models of non-transformed cells (controls). For the characterization of the complexes, we used an MTT assay after 4 h of treatment for the detection of early toxicity and an SRB assay 48 h after treatment for the detection of cytostasis.
# An SRB assay measures protein content of cells in correlation with the cell number in an assay well and can therefore be used to assess cell proliferation or long-term cytostasis. Cells were seeded in 96-well plates the day before the assay. Cells were treated with the compounds for 48 h. Then medium was removed, and cells were fixed with 10% trichloroacetic acid. Fixed cells were washed in distilled water 3 times, followed by staining with SRB (0.4 m/V% dissolved in 1% acetic acid) for 10 min. Stained cells were washed in 1% acetic acid 5 times; acetic acid was removed, and cells were left to dry. Protein-bound SRB was released by adding 100 μL 10 mM Tris base. Plates were measured in a plate photometer (Thermo Scientific Multiscan GO spectrophotometer, Waltham, MA, USA) at 540 nm. On each plate, wells were designed to contain vehicle-treated cells. In calculations, the readings for these wells were considered to be 1, and all readings were expressed relative to these values.
# (§2) Statistical analysis was performed using version 8.0.1 of GraphPad Prism. Values were tested for normal distribution using the Shapiro–Wilk normality test. Nonlinear regression was performed using the built-in “[Inhibitor] vs. response—Variable slope (four parameters), least square fit” utility of GraphPad, which yielded IC50 and Hill slope values if the sigmoid curves reached a plateau of inhibition and there was no decrease between two subsequent data points or when inhibition was over 90%. In other cases, the percentage of inhibition was taken for the maximum concentration (100 μM).
# [2] = system: A2780 cells; test: MTT reduction assay, early toxicity, 4 h treatment; assay type: cell-based
# Procedure: as §1
# (§3) An MTT reduction assay was measures the activity of mitochondrial complex I and can be used to detect toxicity. The assay was performed in a manner similar to that described in [84]. Briefly, cells were plated in 96-well plates the day before the assay. Cells were treated with the compounds for 4 h; then, MTT was added to a 0.5 mg/mL final concentration, and cells were incubated at 37 °C in a cell incubator for 40–60 min as a function of the cell line being assessed. Culture medium was removed, the reduced MTT dye was dissolved in dimethyl-sulfoxide, and plates were measured in a plate photometer (Thermo Scientific Multiscan GO spectrophotometer, Waltham, MA, USA) at 540 nm. On each plate, wells were designed to contain vehicle-treated cells. In calculations, the readings for these wells were considered to 1, and all readings were expressed relative to these values.
# as §2
# [3] = system: primary human dermal fibroblasts; test: MTT reduction assay, early toxicity, 4 h treatment; assay type: cell-based; conditions: up to 100 μM
# Procedure: as §1, §3, §2
# [4] = system: methicillin-resistant Staphylococcus aureus (MRSA) clinical isolates; test: Broth microdilution MIC, clinical MRSA isolates; assay type: cell-based; conditions: 24 h, 0.08–40 μM
# Procedure: (§4) We used a set of clinical isolates of S. aureus and E. faecium that were collected at the Medical Center of the University of Debrecen (Hungary) between 1 January 2018. and 31 December 2020. The clinical isolates were identified using a Microflex MALDI-TOF mass spectrometer (Bruker, Billerica, MA, USA). The antibiotic susceptibility of the isolates was tested following the European Committee on Antimicrobial Susceptibility Testing (EUCAST) guidelines, which were valid at the time of collection.
# (§5) Microdilution experiments were performed according to the standards of EUCAST [85]. The bacterial isolates to be tested were grown on Mueller–Hinton agar plates. The inoculum density of bacteria was set at 5.0 × 10^5 CFU/mL in microtiter plates in a final volume of 200 μL Mueller–Hinton broth. The tested concentration range was 0.08–40 μM (10 concentrations, twofold serial dilutions), and a drug-free growth control and an inoculum-free negative control were included. The inoculated plates were incubated for 24 h at 37 °C, then visually assessed. Minimum inhibitory concentration (MIC) was defined as the lowest concentration with a 50%≤ inhibitory effect compared to the growth control. All experiments were performed at least twice in duplicate.
# [5] = system: vancomycin-resistant Enterococcus (VRE) clinical isolates; test: Broth microdilution MIC, clinical VRE isolates; assay type: cell-based, E. faecium; conditions: 24 h, 0.08–40 μM
# Procedure: as §4, §5
# [6] = system: Enterococcus faecalis (ATCC29212); test: Broth microdilution MIC, reference strain; assay type: cell-based; conditions: 24 h, tested range 0.08–40 μM, read-out: MIC E. faecalis ATCC 29,212
# Procedure: (§6) The reference strains of Staphylococcus aureus (ATCC29213) and Enterococcus faecalis (ATCC29212) were purchased from the ATCC (Manassas, VA, USA).
# as §5
# [7] = system: Staphylococcus aureus (ATCC29213); test: Broth microdilution MIC, reference strain; assay type: cell-based; conditions: 0.08–40 μM, read-out: MIC S. aureus ATCC 29213
# Procedure: as §6, §5
# [8] = Distribution coefficient (logD), n-octanol-PBS; assay type: physicochemical; conditions: n-octanol-PBS (pH = 7.4) system
# Procedure: The logD values of the newly synthesized complexes were determined according to a procedure described in our previous publications. page 64: Ir-7b +1.17 Rh-7b +1.41 Ru-7c +1.31 Os-7c +1.59 Ir-7c +1.40 Rh-7c +1.13 Ru-7d +1.26 Os-7d +1.42 Ir-7d +1.30 Rh-7d +1.04 Ru-7e +2.22 Os-7e +2.21 Ir-7e +1.39 Rh-7e +1.66 *logD was determined in an n-octanol-PBS (pH = 7.4) system 64 (14 pictures or pasted objects on this page, not shown here)
# [9] = inhibition at maximum concentration (100 μM) where no plateau, ND = not detectable
# [10] = clinical isolate 20,426 MRSA, read-out: MIC 20,426 MRSA
# [11] = clinical isolate 24,035 MRSA, read-out: MIC 24,035 MRSA
# [12] = clinical isolate 24,268 MRSA, read-out: MIC 24,268 MRSA
# [13] = clinical isolate 24,272 MRSA, read-out: MIC 24,272 MRSA
# [14] = clinical isolate 24,328 MRSA, read-out: MIC 24,328 MRSA
# [15] = clinical isolate 24,408 MRSA, read-out: MIC 24,408 MRSA
# [16] = clinical isolate 25,051 VRE, read-out: MIC 25,051 VRE
# [17] = clinical isolate 25,498 VRE, read-out: MIC 25,498 VRE
# [18] = clinical isolate 27,085 VRE, read-out: MIC 27,085 VRE
IC50 [1],"MIC [4, 10]","MIC [4, 11]","MIC [4, 12]","MIC [4, 13]","MIC [4, 14]","MIC [4, 15]","MIC [5, 16]","MIC [5, 17]","MIC [5, 18]",MIC [6],MIC ([7]; 24 h),logD [8],SMILES,A2780 SRB Max Inhibition [1],"A2780 MTT Max Inhibition [2, 9]",Fibroblast MTT Max Inhibition [3],other results
6.83 µM,40 µM,40 µM,40 µM,40 µM,40 µM,40 µM,40 µM,40 µM,40 µM,>40 µM,40 µM,2.64,Cc1ccc(C(C)C)cc1.F[P-](F)(F)(F)(F)F.N[C@@H]1[C@@H](OCc2ccccc2)[C@H](OCc2ccccc2)[C@@H](COCc2ccccc2)O[C@H]1c1cnccn1.[Cl][Os+] [Os-3d],>90%,86.83%,73.24%,IC50 [2]: 32.3 µM
32 µM,>40 µM,>40 µM,>40 µM,>40 µM,>40 µM,>40 µM,>40 µM,>40 µM,>40 µM,>40 µM,>40 µM,1.41,Cc1c(C)c(C)[c-](C)c1C.F[P-](F)(F)(F)(F)F.NC1C(c2cccnn2)OC(COC(=O)c2ccccc2)C(OC(=O)c2ccccc2)C1OC(=O)c1ccccc1.[Cl][Rh+2] (mixture of isomers) [Rh-7b],>90%,62.85%,11.39%,
,,,,,,,,,,,,,"N[C@@H]1[C@@H](OC(=O)c2ccccc2)[C@H](OC(=O)c2ccccc2)[C@@H](COC(=O)c2ccccc2)O[C@H]1c1cccnn1 [Complex 7b, 3-(2′-Amino-2′-deoxy-3′,4′,6′-tri-O-benzoyl-β-D-glucopyranosyl)pyridazine]",18.38%,,11.39%,"inhibition at 100 µM ([2]; Homo sapiens, inhibition at maximum concentration (100 μM) where no plateau, ND = not detectable, read-out: A2780 MTT Max Inhibition): 9.12%; MIC ([4]; Staphylococcus aureus, clinical isolate 20,426 MRSA, read-out: MIC 20,426 MRSA): > 40 µM; MIC ([4]; Staphylococcus aureus, clinical isolate 24,035 MRSA, read-out: MIC 24,035 MRSA): > 40 µM; MIC ([4]; Staphylococcus aureus, clinical isolate 24,268 MRSA, read-out: MIC 24,268 MRSA): > 40 µM; MIC ([4]; Staphylococcus aureus, clinical isolate 24,272 MRSA, read-out: MIC 24,272 MRSA): > 40 µM; MIC ([4]; Staphylococcus aureus, clinical isolate 24,328 MRSA, read-out: MIC 24,328 MRSA): > 40 µM; MIC ([4]; Staphylococcus aureus, clinical isolate 24,408 MRSA, read-out: MIC 24,408 MRSA): > 40 µM; MIC ([5]; Enterococcus, clinical isolate 25,051 VRE, read-out: MIC 25,051 VRE): > 40 µM; MIC ([5]; Enterococcus, clinical isolate 25,498 VRE, read-out: MIC 25,498 VRE): > 40 µM; MIC ([5]; Enterococcus, clinical isolate 27,085 VRE, read-out: MIC 27,085 VRE): > 40 µM; MIC ([6]; Enterococcus faecalis): > 40 µM; MIC ([7]; Staphylococcus aureus, ATCC29213, 24 h): > 40 µM"
,>40 µM,>40 µM,>40 µM,>40 µM,>40 µM,>40 µM,>40 µM,>40 µM,>40 µM,>40 µM,>40 µM,1.66,Cc1c(C)c(C)[c-](C)c1C.F[P-](F)(F)(F)(F)F.N[C@@H]1[C@@H](OC(=O)c2ccccc2)[C@H](OC(=O)c2ccccc2)[C@@H](COC(=O)c2ccccc2)O[C@H]1c1ccc2ccccc2n1.[Cl][Rh+2] [Rh-7e],67.32%,31.89%,,
9.81 µM,>40 µM,>40 µM,>40 µM,>40 µM,>40 µM,>40 µM,>40 µM,>40 µM,>40 µM,>40 µM,>40 µM,1.64,Cc1c(C)c(C)[c-](C)c1C.F[P-](F)(F)(F)(F)F.N[C@@H]1[C@@H](OCc2ccccc2)[C@H](OCc2ccccc2)[C@@H](COCc2ccccc2)O[C@H]1c1ccccn1.[Cl][Rh+2] [Rh-3a],>90%,,37.82%,
,>40 µM,>40 µM,>40 µM,>40 µM,>40 µM,>40 µM,>40 µM,>40 µM,>40 µM,>40 µM,>40 µM,2.21,Cc1ccc(C(C)C)cc1.F[P-](F)(F)(F)(F)F.N[C@@H]1[C@@H](OC(=O)c2ccccc2)[C@H](OC(=O)c2ccccc2)[C@@H](COC(=O)c2ccccc2)O[C@H]1c1ccc2ccccc2n1.[Cl][Os+] [Os-7e],67.50%,27.04%,,
